{
  "source": "patent US11834432B2",
  "about": "“Substituted amino six-membered nitric heterocyclic ring compound and preparation and use thereof” (SHANGHAI INSTITUTE OF MATERIA MEDICA, CHINESE ACADEMY OF …, priority 2016, dated 2023)",
  "key": {"[1]": {"assay": "Pharmacokinetics in rats", "type": "in vivo", "conditions": "male, rat, plasma, SD rats", "method": "Seven SD rats, male, weighing 200-220 g, were randomly divided into two groups, 4 or 3 in each group. Compound S10 was administrated by intragastric or intravenous administration.\nRats were fasted for 12 h before test, and had access to water ad libitum. The rats were uniformly fed 2 h after administration of.\nBlood sample time point and sample preparation:\nintragastric administration: 0.25, 0.5, 1.0, 2.0, 4.0, 6.0, 8.0 and 24 h after administration;\nintravenous administration: 5 min, 0.25, 0.5, 1.0, 2.0, 4.0, 6.0, 8.0 and 24 h after administration;\n0.3 mL of venous blood was collected at the above time points via the rat eye vein venous plexus, placed in a heparinized test tube, and centrifuged at 11000 rpm for 5 min, and plasma was separated and frozen in a −20° C. refrigerator.\nS10 in rat plasma was determined by LC/MS/MS.\nThe pharmacokinetic parameters after administration were calculated by a non-compartmental model of WinNonlin 6.3 software (Pharsight, USA).\nThe peak concentration Cmax and the peak time Tmax are measured values; The area under the curve of the drug-time AUC0-t value: calculated by the trapezoidal method; AUC0-∞=AUC0-t+Ct/ke, Ct is the blood concentration of drug at the last measurable time point;\nke is the elimination rate constant;\nElimination half-life t1/2=0.693/ke;\nClearance rate CL=D/AUC0-∞;\nVolume of steady state distribution Vss=CL×MRT;"}, "[2]": {"target": "FGFR1 kinase domain recombinant protein (Homo sapiens (Human), UniProt P11362)", "sequence (P11362 478-767)": "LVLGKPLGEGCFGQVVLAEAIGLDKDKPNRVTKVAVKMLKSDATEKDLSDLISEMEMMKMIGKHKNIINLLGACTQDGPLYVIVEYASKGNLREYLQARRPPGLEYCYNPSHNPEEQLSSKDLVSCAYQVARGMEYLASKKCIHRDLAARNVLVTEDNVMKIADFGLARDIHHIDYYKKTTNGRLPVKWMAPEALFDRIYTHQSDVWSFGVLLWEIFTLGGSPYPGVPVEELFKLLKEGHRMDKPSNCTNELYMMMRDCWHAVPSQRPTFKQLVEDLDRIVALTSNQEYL", "assay": "Inhibition of receptor tyrosine kinase FGFR1 activity (ELISA)", "type": "biochemical", "method": "1. Preliminary Evaluation Inhibition on Receptor Tyrosine Kinase FGFR1 Activity of Compound\n1. […] The liquid from the well was discarded. The plate was washed for three times with T-PBS (0.1% Tween-20 in potassium-free PBS, 200 μL/well), 5 minutes for each time. The elisa plate was dried in 37° C. dryer for 1-2 hours.\n2. 49 μL of ATP solution diluted in reaction buffer (50 mM HEPES pH 7.4, 50 mM MgCl2, 0.5 mM MnCl2, 0.2 mM Na3VO4, 1 mM DTT) was added into each well, and 1 μL of the test compound was added to each well, and then 50 μL of FGFR1 kinase domain recombinant protein diluted in reaction buffer was added to initiate the reaction, and two control wells without ATP were required for each experiment. The reaction was performed on a Shaker (100 rpm) at 37° C. for 1 hour. The liquid from the well was discarded, and the plate was washed with T-PBS for three times.\n3. The antibody PY99 dilution (antibody diluted 1:500 in T-PBS with BSA 5 mg/mL) was added at 100 μL/well, and shaken for 0.5 hours on a 37° C. shaker. The liquid from the well was discarded, and the plate was washed with T-PBS for three times.\n4. The horseradish peroxidase-labeled goat anti-mouse second antibody dilution (antibody diluted 1:2000 in T-PBS with BSA 5 mg/mL) was added at 100 μL/well, and shaken for 0.5 hours on a 37° C. shaker. The liquid from the well was discarded, and the plate was washed with T-PBS for three times.\n5. 2 mg/mL OPD coloration solution (diluted with 0.1 M citric acid-sodium citrate buffer containing 0.03% H2O2 (pH=5.4)) was added at 100 μL/well, and reacted for 1-10 minutes at 25° C. in darkness.\n6. The reaction was quenched with 50 μL/well of 2M H2SO4, and the plate was read using a tunable microplate microplate reader VERSAmax at 490 nm.\nThe IC50 values were obtained by four-parameter regression analysis using the software supplied with the microplate reader."}},
  "data": [
    {"smiles": "CNC(=O)c1cccc2cc(Oc3ccnc(NC(=O)c4ccc(N5C[C@@H](C)N[C@@H](C)C5)cc4)c3)ccc12", "note": "[Compound S10]", "values": [
      {"measurement": "bioavailability", "setting": "[1]; oral, intragastric 10 mg/kg vs intravenous 5 mg/kg", "result": 79.6, "unit": "%"},
      {"measurement": "AUC(0-t)", "setting": "[1]; po, intragastric 10 mg/kg", "result": 3430, "unit": "ng·h/mL"},
      {"measurement": "Cmax", "setting": "[1]; po, intragastric 10 mg/kg", "result": 399, "unit": "ng/mL"},
      {"measurement": "Tmax", "setting": "[1]; po, intragastric 10 mg/kg", "result": 4.5, "unit": "h"},
      {"measurement": "half-life", "setting": "[1]; po, intragastric 10 mg/kg", "result": 3.55, "unit": "h"},
      {"measurement": "clearance", "setting": "[1]; intravenous 5 mg/kg", "result": 40.8, "unit": "mL/min/kg"},
      {"measurement": "half-life", "setting": "[1]; intravenous 5 mg/kg", "result": 3.69, "unit": "h"},
      {"measurement": "Vd", "setting": "[1]; intravenous 5 mg/kg, read-out: Vss", "result": 11.3, "unit": "L/kg"},
      {"measurement": "IC50", "setting": "[2]", "result": "< 10", "unit": "nM"},
      {"measurement": "inhibition at 0.1 µM", "setting": "[2]; 1 h, read-out: Inhibition ratio (%) @ 0.1 μM", "result": 94, "unit": "%"}
    ]}
  ]
}
